These compounds were tested on ulcer (assay: Anti-ulcer test (restraint and water immersion ulcer in rats, i.p.)). Details: Rattus norvegicus, ip, read-out: % Inhibition of Ulcer.
Assay type: in vivo, Male Wistar rats
How it was run: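 Compound given intraperitoneally in saline to 24 h-fasted male Wistar rats about 150 g, followed after one hour by 6 h restraint with water immersion at 21 °C. Gastric lesions graded 0, 0.5, 1, 2 or 3 on microscopic inspection and converted to percent ulcer inhibition.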

In order of falling inhibition in vivo at 25 mg/kg:
1. CC(C)CC(NC(=O)C(O)C(O)C(CC(N)=O)NC(=O)C(C)C)C1Cc2cccc(O)c2C(=O)O1 (centres unmarked) [VII-28-2]  78%
2. CCNC(CC(N)=O)C(O)C(OC)C(=O)NC(CC(C)C)C1Cc2cccc(OCC)c2C(=O)O1 (centres unmarked) [VII-16-1]  56%

In order of rising inhibition in vivo at 50 mg/kg:
1. CC(C)CC(NC(=O)C(O)C1OC(=O)CC1NC(=O)C1CC2C=CC1C2)C1Cc2cccc(O)c2C(=O)O1 (centres unmarked) [IIIa-1-71]  66%
2. CC(C)CC(NC(=NC(C)C)C(O)C(O)C(N)CC(=O)O)C1Cc2cccc(O)c2C(=O)O1 (centres unmarked) [Vb-1-41]  89%

Same assay, conditions: Rattus norvegicus, ip; 25 mg/kg i.p.; read-out: % Inhibition of Ulcer

In order of rising inhibition in vivo at 25 mg/kg:
1. CCNC(CC(N)=O)C(O)C(OC)C(=O)NC(CC(C)C)C1Cc2cccc(OC(=O)C(C)C)c2C(=O)O1 (centres unmarked) [VII-18-3]  56%
2. CNC(CC(N)=O)C(O)C(OC(C)=O)C(=O)NC(CC(C)C)C1Cc2cccc(OC(C)=O)c2C(=O)O1 (centres unmarked) [VII-21-1]  66%
3. CCNC(CC(N)=O)C(O)C(OC(C)=O)C(=O)NC(CC(C)C)C1Cc2cccc(O)c2C(=O)O1 (centres unmarked) [VII-11-1]  72%
4. CCCC=Cc1ccc(CNC(=O)CC(N)C(O)C(O)C(=O)NC(CC(C)C)C2Cc3cccc(O)c3C(=O)O2)cc1 (centres unmarked) [VII-1-41]  83%
5. CC(C)CC(NC(=O)C(O)C(O)C(N)CC(=O)NCCCC1CCCC1)C1Cc2cccc(O)c2C(=O)O1 (centres unmarked) [VII-1-34]  83%
6. CCNC(CC(N)=O)C(O)C(O)C(=O)NC(CC(C)C)C1Cc2cccc(OC(=O)CC)c2C(=O)O1 (centres unmarked) [VII-13-3]  83%
7. CC(=O)NC(CC(N)=O)C(O)C(O)C(=O)NC(CC(C)C)C1Cc2cccc(OC(C)=O)c2C(=O)O1 (centres unmarked) [VII-31-1]  89%
8. CCNC(=O)CC(N)C(O)C(O)C(=O)NC(CC(C)C)C1Cc2cccc(O)c2C(=O)O1 (centres unmarked) [VII-1-3]  100%

Same assay, conditions: Rattus norvegicus, ip; 50 mg/kg i.p.; read-out: % Inhibition of Ulcer

In order of rising inhibition in vivo at 50 mg/kg:
1. CCCCCCCCC=CCCCCCCCC(=O)NC1CC(=O)OC1C(OC(C)=O)C(=O)NC(CC(C)C)C1Cc2cccc(OC(C)=O)c2C(=O)O1 (centres unmarked) [IIIa-3-5]  22%
2. CCOc1cccc2c1C(=O)OC(C(CC(C)C)NC(=O)C(OC)C1OC(=O)CC1NC(=O)c1ccc(OCCC(C)C)cc1)C2 (centres unmarked) [IIIa-7-9]  22%
3. CCOc1cccc2c1C(=O)OC(C(CC(C)C)NC(=O)C(OC(C)=O)C1OC(=O)CC1NC(=O)c1ccc(OCCC(C)C)cc1)C2 (centres unmarked) [IIIa-6-9]  22%
4. CCCCCCCCC=CCCCCCCCC(=O)NC1CC(=O)OC1C(OC(C)=O)C(=O)NC(CC(C)C)C1Cc2cccc(O)c2C(=O)O1 (centres unmarked) [IIIa-2-5]  33%
5. CCCCCCCCCCCCCCCCCC(=O)NC1CC(=O)OC1C(OC(C)=O)C(=O)NC(CC(C)C)C1Cc2cccc(O)c2C(=O)O1 (centres unmarked) [IIIa-2-4]  33%
6. CCOc1cccc2c1C(=O)OC(C(CC(C)C)NC(=O)C(O)C1OC(=O)CC1NC(=O)Cc1ccc3ccccc3c1)C2 (centres unmarked) [IIIa-5-62]  33%
7. CC(C)CC(NC(=O)C(O)C1OC(=O)CC1NC(=O)C(Cl)(Cl)Cl)C1Cc2cccc(OC(=O)C(Cl)(Cl)Cl)c2C(=O)O1 (centres unmarked) [IIIa-4-9]  33%
8. CC(=O)NC1CC(=O)OC1C(OC(C)=O)C(=O)NC(CC(C)C)C1Cc2cccc(OCC(C)C)c2C(=O)O1 (centres unmarked) [IIIa-6-2]  33%
9. CCCCCCCC(=O)Oc1cccc2c1C(=O)OC(C(CC(C)C)NC(=O)C(O)C1C=CC(=O)O1)C2 (centres unmarked) [IVa-3-7]  33%
10. CC(C)CC(NC(=O)C(O)C1C=CC(=O)O1)C1Cc2cccc(OCC3CCCO3)c2C(=O)O1 (centres unmarked) [IVa-4-14]  33%
11. CCOc1cccc2c1C(=O)OC(C(CC(C)C)NC(=O)C(O)C1OC(=O)CC1NC(=O)c1ccc(C(=O)OC)cc1)C2 (centres unmarked) [IIIa-5-49]  33%
12. CCCCC(=O)Oc1cccc2c1C(=O)OC(C(CC(C)C)NC(=O)C(O)C1C=CC(=O)O1)C2 (centres unmarked) [IVa-3-4]  33%
13. CCCCCCCCCCCCCCCCCC(=O)NC1CC(=O)OC1C(O)C(=O)NC(CC(C)C)C1Cc2cccc(OCCCCCCC)c2C(=O)O1 (centres unmarked) [IIIa-5-6]  33%
14. CCOc1cccc2c1C(=O)OC(C(CC(C)C)NC(=O)C(O)C1OC(=O)CC1NC(=O)CCC1CCCC1)C2 (centres unmarked) [IIIa-5-61]  33%
15. CCCCCCCCCCCC(=O)OC(C(=O)NC(CC(C)C)C1Cc2cccc(O)c2C(=O)O1)C1C=CC(=O)O1 (centres unmarked) [IVa-1-10]  33%
16. CC(C)CC(NC(=O)C(O)C1C=CC(=O)O1)C1Cc2cccc(OCc3ccccc3)c2C(=O)O1 (centres unmarked) [IVa-4-9]  33%
17. CCCCCOC(=O)c1ccc(C(=O)NC2CC(=O)OC2C(O)C(=O)NC(CC(C)C)C2Cc3cccc(OCC)c3C(=O)O2)cc1 (centres unmarked) [IIIa-5-50]  33%
18. CCOc1cccc2c1C(=O)OC(C(CC(C)C)NC(=O)C(O)C1OC(=O)CC1NC(=O)c1cnc3ccc(OC)cc3c1)C2 (centres unmarked) [IIIa-5-30]  33%
19. CC(=O)Oc1cccc2c1C(=O)OC(C(CC(C)C)NC(=O)C(O)C1OC(=O)CC1NC(=O)C(C)C)C2 (centres unmarked) [IIIa-4-2]  44%
20. CCCCCCCCOc1cccc2c1C(=O)OC(C(CC(C)C)NC(=O)C(O)C1OC(=O)CC1NC(C)=O)C2 (centres unmarked) [IIIa-5-11]  44%
21. CCCCCCCCCCCCCCCCCCNC1CC(=O)OC1C(OCC)C(=O)NC(CC(C)C)C1Cc2cccc(OCCCCCCC)c2C(=O)O1 (centres unmarked) [IIIa-24-4]  44%
22. CC(C)CC(NC(=O)C(O)C1OC(=O)CC1NC(=O)c1ccc2ccccc2c1)C1Cc2cccc(O)c2C(=O)O1 (centres unmarked) [IIIa-1-15]  44%
23. COc1cccc2c1C(=O)OC(C(CC(C)C)NC(=O)C(O)C1C=CC(=O)O1)C2 (centres unmarked) [IVa-4-1]  44%
24. CC(C)CC(NC(=O)C(O)C(O)C=CC(=O)NCC1CCCCC1)C1Cc2cccc(O)c2C(=O)O1 (centres unmarked) [VIII-1-5]  44%
25. CCCCOC(C(=O)NC(CC(C)C)C1Cc2cccc(O)c2C(=O)O1)C1OC(=O)CC1NCC (centres unmarked) [IIIa-25-1]  66%
26. CCCCOc1cccc2c1C(=O)OC(C(CC(C)C)NC(=N)C(OCCCC)C(O)C(N)CC(=O)O)C2 (centres unmarked) [Vb-7-2]  66%
27. CC(C)CC(NC(=O)C(O)C1OC(=O)CC1NC(=O)Cn1cnnn1)C1Cc2cccc(O)c2C(=O)O1 (centres unmarked) [IIIa-1-75]  66%
28. Cc1ccc(CC(=O)NC2CC(=O)OC2C(O)C(=O)NC(CC(C)C)C2Cc3cccc(O)c3C(=O)O2)cc1 (centres unmarked) [IIIa-1-65]  66%
29. CCCC=Cc1ccc(C(=O)NC2CC(=O)OC2C(O)C(=O)NC(CC(C)C)C2Cc3cccc(O)c3C(=O)O2)cc1 (centres unmarked) [IIIa-1-77]  66%
30. CCCCCCCCCCCCCCCCCC(=O)Oc1cccc2c1C(=O)OC(C(CC(C)C)NC(=O)C(O)C1OC(=O)CC1N)C2 (centres unmarked) [IIIa-12-3]  66%
31. COC(C(=N)NC(CC(C)C)C1Cc2cccc(OC(C)=O)c2C(=O)O1)C(O)C(CC(=O)O)NC(C)C (centres unmarked) [Vb-27-2]  66%
32. CC(C)CC(NC(=O)C(O)C1OC(=O)CC1NC(=O)CCCc1cccs1)C1Cc2cccc(O)c2C(=O)O1 (centres unmarked) [IIIa-1-26]  66%
33. CC(=O)Oc1cccc2c1C(=O)OC(C(CC(C)C)NC(=O)C(O)C1OC(=O)CC1NCC(C)C)C2 (centres unmarked) [IIIa-21-2]  72%
34. CCNC1CC(=O)OC1C(O)C(=O)NC(CC(C)C)C1Cc2cccc(OCC(C)C)c2C(=O)O1 (centres unmarked) [IIIa-22-10]  83%
35. CCCC=Cc1ccc(CN=C(NC(CC(C)C)C2Cc3cccc(O)c3C(=O)O2)C(O)C(O)C(N)CC(=O)O)cc1 (centres unmarked) [Vb-1-40]  89%
